Assay results from patent US20050240041A1, “Palm-based hydroxy fatty acid” (priority 2004, published 2005).
Entries after “also recorded” stand apart in the source; their conditions may differ.

Tests used:
[1] = in-vitro dermal (skin) irritection test
Description: (§1) The purified palm DHSA obtained in the laboratory was subjected to in-vitro and in-vivo dermal irritection test which confirmed that the compound is non irritant, and thus suitable as one of the ingredients used in cosmetic products. The details of the current invention is described below.
In the recrystallization technique, the crude DHSA is dissolved in the solvent with a slight heating of the mixture (about 50° C. to 60° C.). The solution is left to cool down gradually to ambient temperature and further cooled at about 10° C. to 15° C. to ensure maximum yield. The precipitate obtained is filtered and dried. The product referred to, as purified palm DHSA is a white powdery solid with waxy sensation. The non-irritancy properly was conducted through in vitro derived skin irritection study.

[2] = in-vivo dermal irritection test
Text: as §1

[3] = cited from earlier work

## CCCCCCCCC(O)C(O)CCCCCCCC(=O)O (stereo not drawn) [purified palm DHSA, 9,10-dihydroxystearic acid]
[1]; in vitro dermal/skin irritection study
  dermal irritancy: non irritant; also recorded: non-irritant
[2]
  dermal irritancy: non irritant

## CCCCCCCCC(O)C(O)CCCCCCCC(=O)O (stereo not drawn) [purified DHSA, 9,10-dihydroxystearic acid]
[1]; test not named at this place
  irritancy: non-irritant

## CCCCCCCCC(O)C(O)CCCCCCCC(=O)O (stereo not drawn) [9,10-dihydroxystearic acid]
[3]; ether
  solubility in ether: slightly soluble
[3]; hot alcohol or acetone
  solubility in hot alcohol or acetone: soluble
[3]; water
  solubility in water: insoluble
